Common to all, as to type: cell-based
The test system of data set [1] is LPS-induced NO production in RAW 264.7 macrophages. Briefly: Inhibition of LPS-induced NO production in RAW 264.7 macrophages (Griess reagent). The following applies: for IC50: LPS-induced RAW 264.7 macrophages, 4 h pretreatment, then 48 h with 2 μg/mL LPS. As for the experimental part:
(§1) Then, 100-μL aliquots of the exponentially growing RAW 264.7 cells were seeded in 96-well culture plates at 1 × 10^4 cells/well at 37 °C for overnight in DMEM medium with 0.1% FBS. The culture medium was replaced by fresh free-FBS medium and cells were pretreated with different concentrations (0, 1, 3, 10, 30, 100, 300, 1000 μM) of samples for 4 h. Thereafter, the medium with samples was removed and then incubated for 48 h with or without 2 μg/mL LPS 10% FBS DMEM. The nitrite concentration (NO production) in the culture supernatant was measured using Nitric Oxide assay kit mainly containing Griess reagent. The absorbance was measured at 540 nm using a microplate reader (M5). The amount of NO was calculated from a standard curve created using sodium nitrite with known concentrations. The cell viability was evaluated by SRB colorimetric assay.

A short description of data set [2]: Cytotoxicity / cell viability by SRB colorimetric assay. The following applies: mouse, RAW 264.7 cells, inhibition of cell viability of samples-treated RAW264.7 cells. The procedure:
as §1
For orientation: In SRB staining, fixed cells bind dye roughly in proportion to their protein.

The next data set relates to NF-κB. Briefly: NF-κB luciferase reporter assay in TNF-α-induced RAW264.7 cells. The following applies: 8 h treatment, TNF-α 50 ng/mL; for inhibition at 20 µM: Mus musculus, read-out: NF-κB-luciferase inhibitory percentage; for inhibition of the NF-κB pathway (result in words): 1-50 µM. The procedure: RAW 264.7 cells (10,000 cells/well) were placed in a 96-well plate and the cells were then transfected with pNF-κB-Luc expression plasmid using a mixture of plasmid and lipofectamin 2000 PLUS in the Opti-MEM® I Reduced Serum Medium according to manufacturer’s instructions (Life Technologies, Carlsbad, CA, USA). After 12 h, the cells were co-incubated with the active samples (1, 5, 10, 20, 50 µM) and TNF-α. Parthenolide (P) was used as positive control. NF-κB was induced by adding TNF-α (50 ng/mL, delivered in PBS) to the treated wells and the induced control wells. After an additional 8 h, Bright-Glo luciferase reagent (Beyotime) was added to each well (100 μL) and the plate was allowed to stand for two minutes. Luminescence measurements with a relative light unit (RLU) were then obtained using a Fluoroskan Ascent multiple microplate reader (Molecular Device, Sunnyvale, CA, USA). Each experiment was performed in biological triplicate (at minimum) with three technical replicates per experiment.
Figure 3 Compound 1 inhibited TNF-α-induced NF-κB activation by NF-κB-luciferase inhibition assay in RAW264.7 cells. 1 and parthenolide (P, positive control) were dosed to RAW264.7 cells containing a stably transfected NF-κB luciferase reporter and stimulated with TNF-α (50 ng/mL) for 8 h (except for a non-induced control, Non-Ind). […] Mean ± standard deviation values are shown with more than three replicates.
(In a reporter assay the amount or activity of a reporter protein is the signal.)

The subject of data set [3] is NF-κB p65 and p50 subunit. The data set is described as follows: Western blotting of p65 and p50 phosphorylation in TNF-α-induced RAW264.7 cells. The following applies: 50, 10 and 1 µM, 8 h, TNF-α 50 ng/mL. As for the experimental part:
RAW 264.7 cells were seeded in a 24-well plate at 5 × 10^4 cells/well. After cells adherence for overnight, the test compound 1 (50, 10 and 1 µM) or parthenolide (10 µM) and TNF-α (50 ng/mL) were added to the wells and incubated for 8 h. Then, cell pellets were collected and lysed with RIPA lysis buffer containing 0.5 mM phenylmethylsulfonyl fluoride (PMSF) and a protease inhibitor cocktail. The protein concentration of cell samples was analyzed by using the BCA method. Equal amount proteins of each sample were electrophoresed on 12% separating gel and 4% stacking gel and electrotransferred onto an NC membrane. After incubation with appropriate primary and secondary antibodies of p65 and p50, protein blots were detected by using ECL solution and ChemiDoc XRS+ imaging system (Bio-Rad, Hercules, CA, USA). β-actin was used as loading control.  Figure 4 Compound 1 blocks TNF-α-induced NF-κB activation through p65 and p50 phosphorylation in RAW264.7 cells. After treatment with 1 and parthenolide (P) at the indicated concentrations for 8 h, total cell lysates were tested by western blot experiments.
(In general: In western blotting, separated proteins are transferred to a membrane and probed.)

Experimental findings from publication PMC6150205, “Semisynthesis, an Anti-Inflammatory Effect of Derivatives of 1β-Hydroxy Alantolactone from Inula britannica” (Molecules : A Journal of Synthetic Chemistry and Natural …, 2017) are described below.

The term IC50 denotes the concentration that inhibits the measured activity by half. With `N=C(N)NN` [Aminoguanidine, reference compound], the IC50 in data set [1] came out at 10.9 ± 1.5 µM.

Regarding `C=C1C(=O)O[C@@H]2C[C@@]3(C)C(=O)CC[C@H](C)C3=C[C@H]12` [Compound 2], the IC50 in data set [1] (Mus musculus, RAW264.7) stood at 36.1 ± 3.8 µM. This compound also had an IC50 at 4 h in data set [2] of 34.5 ± 5.8 µM. In the data set on NF-κB, the inhibition at 20 µM is 55%.

As to `Cc1ccc(C2=NO[C@]3(C2)C(=O)O[C@@H]2C[C@@]4(C)C(=O)CC[C@H](C)C4=C[C@@H]23)cc1` [Compound 6], in data set [1] (Mus musculus, RAW264.7), the IC50 was greater than 1000 µM.

Regarding `C=C1C(=O)O[C@H]2[C@H]1CC/C(C)=C/CC[C@@]1(C)O[C@@H]21` [parthenolide, Parthenolide, reference compound], in the data set on NF-κB, the “inhibition of the NF-κB pathway (result in words)” value is recorded as “comparably potent”.

With `C[C@@H]1C(=O)O[C@@H]2C[C@]3(C)C(=C[C@H]12)[C@@H](C)CC[C@H]3O` [Compound 5], the IC50 in data set [1] (Mus musculus, RAW264.7) is greater than 1000 µM.

With `C=C1C(=O)O[C@@H]2C[C@]3(C)C(=C[C@H]12)[C@@H](C)CC[C@H]3OC(=O)CCC(=O)O` [Compound 4], the IC50 in data set [1] (Mus musculus, RAW264.7) is 39.6 ± 5.7 µM. In data set [2], this compound showed an IC50 at 4 h greater than 50 µM.

For `C=C1C(=O)O[C@@H]2C[C@]3(C)C(=C[C@H]12)[C@@H](C)CC[C@H]3O` [Compound 1, 1β-Hydroxy alantolactone], the IC50 in data set [1] (Mus musculus, RAW264.7) was found to be 5.61 ± 0.34 µM. Also, the “potency against NO production relative to 2–4” value in data set [1] (ratio of IC50 values, 1 versus 2–4) is given as 6.5–8.4 fold. This compound showed an IC50 at 4 h in data set [2] greater than 50 µM. Further, in the data set with NF-κB, the “inhibition of the NF-κB pathway (result in words)” value is given as “dose-dependent inhibition” and the inhibition at 20 µM worked out at 75%. In data set [3], the “TNF-α-induced phosphorylation of NF-κB p65 and p50 subunit (result in words)” value was “dose-dependently suppressed”.

Regarding `C=C1C(=O)O[C@@H]2C[C@]3(C)C(=C[C@H]12)[C@@H](C)CC[C@H]3OC(C)=O` [Compound 3], the IC50 in data set [1] (Mus musculus, RAW264.7) was 46.5 ± 5.6 µM. Besides, the IC50 at 4 h in data set [2] was greater than 50 µM.
